Data on 9 compounds can be found in patent US20250228795A1, “ESTROGENIC COMPOUNDS AND METHODS OF USE” (laterion, Inc., priority 2022, published 2025).

The target of one experiment is T1, ERβ (Homo sapiens, UniProt Q92731).
T1 construct: expressed in transfected cells; host or cells: doxycycline-dependent U2OS cells
Nature of the experiment: Luciferase activity in NKG2E-TK-Luc-transfected U2OS-ERβ cells with doxycycline. It is filed as cell-based. The conditions noted are these: in combination with E2, doxycycline, FIG. 7. As to the method:
Luciferase Activity in NKG2E-TK-Luc-Transfected U2OS-ERβ Cells with Doxycycline. […] Luciferase activity for each of the compounds was recorded.

Experiment [1] concerns MCF-7 breast cancer cells. Nature of the experiment: MCF-7 cell proliferation (viable cell counts), CC7 and six analogs. The experiment is classed as cell-based. As to the method:
In order for long term menopausal hormone therapy to be a viable alternative to currently available therapeutic options it must not promote breast cancer. […] MCF-7 cells were incubated for 24 hr in the presence of medium (control), 1 nM […], or 5 μM of each of the compounds depicted in FIG. 4 (CC7 and six analogs, A9, A10, A11, A13, A15, and A20). Viable cell counts were determined by flow cytometry.
MCF-7 cells were plated at a density of 50,000 cells per well in 6-well tissue culture plates in DMEM/F12 supplemented with 5% stripped FBS. […] The cells were then detached with trypsin, neutralized with media containing 5% FBS, and resuspended. Appropriate amounts of cell suspension were placed in ISOTON II diluent (Thermo Fisher Scientific, Waltham, MA, USA) and the cell numbers were then measured using a Coulter Counter (Beckman, Brea, CA, USA).
(§1) Flow cytometry was performed based on a previously described method (Pan et al. 2016). Briefly, the cells were plated at a density of 500,000 cells per well in 6-well tissue culture dishes in DMEM/F-12 supplemented with 5% stripped FBS for 48 h. The cultured medium was then replaced by serum-free DMEM/F12 for 24 h. […] The culture medium was then aspirated, and the cells were washed with PBS, detached with trypsin and collected by centrifugation at 1700 rpm for 5 min. The cell pellets were washed with ice cold PBS followed by centrifugation at 1700 rpm for 10 min at room temperature. The cell pellets were resuspended in 500 μL PBS containing 50 μg/mL propidium iodide, 0.1% of triton X-100, 0.1% of sodium citrate, and 10 μg/mL of RNase. The cell suspensions were then analyzed with a BD LSR II Flow Cytometer (BD Biosciences, San Jose, CA, USA) in the Flow Cytometry facility at University of California, Berkeley and the percentage of cells in cell cycle phases were determined by using FlowJo 7.6.5 (FlowJo, LLC, Ashland, OR, USA).

Another experiment has as its system KRT19. Kind of experiment: Gene expression assay (real-time PCR) in U2OS-ERα cells: KRT19. It is filed as cell-based, Human. The settings on record: in combination with E2, U2OS-ERα cells, FIG. 5. As to the method:
(§2) Human U2OS (osteosarcoma) cells expressing a tetracycline-regulated ERα (U2OS-ERα) were prepared, characterized, and maintained as previously described (Tee et al., 2004). The cells were maintained in phenol red-free Gibco DMEM/F-12 (Thermo Fisher Scientific, Waltham, MA, USA) supplemented with 5% charcoal-dextran stripped fetal bovine serum (FBS, Gemini Bio Products, West Sacramento, CA, USA), 100 units/mL penicillin and streptomycin, 50 μg/mL Fungizone, and 2 mM of glutamine. To maintain stable transfected cells, 50 μg/mL hygromycin B and 500 μg/mL of zeocin (Invitrogen, Waltham, MA, USA) were included in culture media.

Experiment [2] relates to MCF-7 breast cancer cells. Nature of the experiment: MCF-7 cell proliferation (viable cell counts), A9 and its four analogs. It is filed as cell-based. The procedure:
Viable cell counts were determined by flow cytometry.
MCF-7 cells were plated at a density of 50,000 cells per well in 6-well tissue culture plates in DMEM/F12 supplemented with 5% stripped FBS. […] The cells were then detached with trypsin, neutralized with media containing 5% FBS, and resuspended. Appropriate amounts of cell suspension were placed in ISOTON II diluent (Thermo Fisher Scientific, Waltham, MA, USA) and the cell numbers were then measured using a Coulter Counter (Beckman, Brea, CA, USA)
as §1

In experiment [3] the target is T2, ERα (Homo sapiens, UniProt P03372).
T2 sequence (P03372 1-595): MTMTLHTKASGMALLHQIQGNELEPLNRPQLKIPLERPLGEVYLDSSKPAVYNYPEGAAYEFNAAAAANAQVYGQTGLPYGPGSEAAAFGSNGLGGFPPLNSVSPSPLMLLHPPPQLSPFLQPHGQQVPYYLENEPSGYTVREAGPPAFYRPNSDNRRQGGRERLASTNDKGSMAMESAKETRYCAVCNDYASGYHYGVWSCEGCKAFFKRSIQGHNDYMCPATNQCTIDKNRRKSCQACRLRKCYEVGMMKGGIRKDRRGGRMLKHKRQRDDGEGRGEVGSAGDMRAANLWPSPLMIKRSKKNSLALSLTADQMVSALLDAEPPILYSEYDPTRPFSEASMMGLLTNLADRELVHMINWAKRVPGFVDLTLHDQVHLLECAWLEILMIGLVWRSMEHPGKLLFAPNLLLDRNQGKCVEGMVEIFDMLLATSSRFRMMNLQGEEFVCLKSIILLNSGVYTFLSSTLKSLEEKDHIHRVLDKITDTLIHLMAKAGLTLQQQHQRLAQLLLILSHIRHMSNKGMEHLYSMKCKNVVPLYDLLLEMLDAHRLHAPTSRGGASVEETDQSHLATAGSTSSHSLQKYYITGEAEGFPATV
Kind of experiment: Luciferase activity in ERE-TK-Luc/ERα-transfected Ishikawa cells. The experiment is classed as cell-based. Details: expressed in transfected cells; host or cells: Ishikawa cells. The settings on record: FIG. 6.

For another experiment, the system named is FGR. Nature of the experiment: Gene expression assay (real-time PCR) in U2OS-ERα cells: reprogrammed gene FGR. The conditions noted are these: FIG. 5. The experiment is classed as cell-based, Human. As to the method: as §2
In general terms: Real-time PCR tracks product formation cycle by cycle.

Experiment [4] addresses T2, ERα. Nature of the experiment: Luciferase assay of A9 analogs in doxycycline-dependent U2OS cells (ER-TK-Luc or NKG2E-TK-Luc). The experiment is classed as cell-based. The settings on record: in combination with E2; ER-TK-Luc (FIG. 9) and NKG2E-TK-Luc (FIG. 10); compared with A9R1-A9R4. Details: expressed in transfected cells; host or cells: doxycycline-dependent U2OS cells. The procedure: Luciferase Assay of A9 analogs. In order to better understand the structure-activity relationship of analogs of A9, the analogs A9R1, A9R2, A9R3, and A9R4 were prepared. See structures on FIG. 8. […] Luciferase activity results are shown in FIG. 9 (ER-TK-Luc) and FIG. 10 (NKG2E-TK-Luc).

Setting [5] is: compound (5 μM) in combination with E2, FIG. 4.
The mark [6] stands for this setting: compound (5 μM) in combination with E2, FIG. 11.
Where [7] appears, read: compound alone (1 nM E2 or 5 μM compound), FIG. 11.
Where [8] appears, read: in combination with E2, Ishikawa cells.

The structures appear in SMILES notation.

T1 sequence (Q92731 whole entry): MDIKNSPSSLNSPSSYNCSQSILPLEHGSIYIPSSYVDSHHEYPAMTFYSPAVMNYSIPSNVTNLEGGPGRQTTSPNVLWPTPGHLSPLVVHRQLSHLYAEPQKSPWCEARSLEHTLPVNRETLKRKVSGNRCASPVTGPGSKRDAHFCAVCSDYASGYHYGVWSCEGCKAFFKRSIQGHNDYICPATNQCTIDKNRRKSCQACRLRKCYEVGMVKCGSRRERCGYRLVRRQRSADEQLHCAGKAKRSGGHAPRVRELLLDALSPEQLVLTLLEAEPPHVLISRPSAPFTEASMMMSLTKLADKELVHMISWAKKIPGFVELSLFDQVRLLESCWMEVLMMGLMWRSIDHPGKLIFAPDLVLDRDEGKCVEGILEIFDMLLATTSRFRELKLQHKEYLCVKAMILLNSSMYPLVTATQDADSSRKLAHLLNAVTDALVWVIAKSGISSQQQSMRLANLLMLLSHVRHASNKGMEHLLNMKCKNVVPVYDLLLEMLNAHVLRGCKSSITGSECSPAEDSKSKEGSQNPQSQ

For `O=C(/C=C/c1ccc(O)cc1)c1ccc(O)cc1` [Example A13, (E)-1,3-bis(4-hydroxyphenyl)prop-2-en-1-one], the “luciferase activity (NKG2E-TK-Luc), ERβ activity” value on ERβ is “exceptional ERβ activity”.

On to `O=C(/C=C/c1ccc(O)cc1)c1ccc(O)c(O)c1` [Example A14, (E)-1-(3,4-dihydroxyphenyl)-3-(4-hydroxyphenyl)prop-2-en-1-one], for which the “luciferase activity (NKG2E-TK-Luc), ERβ activity” value on ERβ is listed as “exceptional ERβ activity”.

For the compound `O=C(/C=C/c1cccc(O)c1)c1ccc(O)c(O)c1O` [Example A10, (E)-3-(3-hydroxyphenyl)-1-(2,3,4-trihydroxyphenyl)prop-2-en-1-one], the “luciferase activity (NKG2E-TK-Luc), ERβ activity” value on ERβ is on record as “exceptional ERβ activity”. Besides, the “MCF-7 viable cell count / proliferation” value in experiment [1] (setting [5]) is reported as “well below the cell counts for E2 alone”.

Take `O=C(/C=C/c1ccccc1)c1ccc(O)c(O)c1O` [CC7, 2′,3′,4′-trihydroxychalcone, reference compound]: in the experiment with KRT19, the KRT19 expression result is “large synergistic effect”. For the same compound, the “MCF-7 viable cell count / proliferation” value in experiment [2] (setting [6]) was “well below the control”; in experiment [2] (setting [7]), “well below the cell counts for E2 alone”; in experiment [1] (setting [5]), “well below the cell counts for E2 alone”; in experiment [1] (compound alone (1 nM E2 or 5 μM compound), FIG. 4) it was “well below the cell counts for E2 alone”. Moreover, the “luciferase activity (ERE-TK-Luc)” value was “no effect” on ERα [3] (compound alone, Ishikawa cells) and “demonstrated synergism with E2” on ERα [3] (setting [8]). The FGR expression entry in the experiment on FGR (compound by itself, U2OS-ERα cells) is “not by either compound by itself”; in the experiment with FGR (in combination with E2, U2OS-ERα cells) it was “activated by the combination of E2 and CC7 only”.

On to `O=C(/C=C/c1ccccn1)c1ccc(O)cc1O` [Example A9R4, (E)-1-(2,4-dihydroxyphenyl)-3-(pyridin-2-yl)prop-2-en-1-one], for which the “MCF-7 viable cell count / proliferation” value in experiment [2] (setting [6]) is reported as “well below the control”.

Take `O=C(/C=C/c1ccc(O)cc1)c1ccccc1` [Example A15, (E)-3-(4-hydroxyphenyl)-1-phenylprop-2-en-1-one]: on ERβ, the “luciferase activity (NKG2E-TK-Luc), ERβ activity” value is reported as “exceptional ERβ activity”.

For `Cc1cc(O)ccc1C(=O)/C=C/c1ccccn1` [Example A9R2, (E)-1-(4-hydroxy-2-methylphenyl)-3-(pyridin-2-yl)prop-2-en-1-one], the “MCF-7 viable cell count / proliferation” value in experiment [2] (setting [6]) is given as “well below the control”.

Regarding `O=C(/C=C/c1ccccn1)c1ccc(O)c(O)c1O` [Example A9, (E)-3-(pyridin-2-yl)-1-(2,3,4-trihydroxyphenyl)prop-2-en-1-one], the “MCF-7 viable cell count / proliferation” value in experiment [2] (setting [6]) is “well below the control”; in experiment [2] (setting [7]), “well below the cell counts for E2 alone”; in experiment [1] (setting [5]), “well below the control”. The “luciferase activity (ERE-TK-Luc)” value on ERα [3] (compound alone, Ishikawa cells) is given as “no effect”; at ERα [3] (setting [8]), “demonstrated synergism with E2”. Moreover, the “luciferase activity, synergistic effect with E2” value on ERα [4] is “greatest synergistic effect with E2”.

Consider `O=C(/C=C/c1ccccn1)c1ccc(O)cc1` [Example A9R1, (E)-1-(4-hydroxyphenyl)-3-(pyridin-2-yl)prop-2-en-1-one], for which the “MCF-7 viable cell count / proliferation” value in experiment [2] (setting [6]) is “well below the control”.
